Here are results for 23 compounds from patent US4868195A, “Novel enolamides, pharmaceutical compositions and methods of use thereof for activity as modulators of the arachidonic acid cascade” (Warner-Lambert Company, priority 1988, dated 1989).

This test concerns the target T1, leukotriene receptor (guinea pig lung membranes) (Cavia porcellus, UniProt Q2NNR5).
T1 construct: 20 mg original tissue wet weight of guinea pig lung; tissue Kuiper Rabbit Farm, Gary, IN (animals); host or cells: guinea pig lung, crude membranes
T1 sequence (Q2NNR5 1-340): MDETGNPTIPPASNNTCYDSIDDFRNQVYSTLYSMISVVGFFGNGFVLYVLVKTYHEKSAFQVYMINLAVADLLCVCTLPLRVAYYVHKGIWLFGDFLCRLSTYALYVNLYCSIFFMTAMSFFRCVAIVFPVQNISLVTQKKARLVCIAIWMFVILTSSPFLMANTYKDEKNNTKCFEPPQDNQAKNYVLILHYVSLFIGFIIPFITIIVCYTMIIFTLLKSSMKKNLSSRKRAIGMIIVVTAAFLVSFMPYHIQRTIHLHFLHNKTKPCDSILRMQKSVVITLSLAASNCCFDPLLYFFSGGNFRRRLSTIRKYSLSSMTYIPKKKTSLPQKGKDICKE
Briefly: Binding of ^3 H-Leukotriene D4 to Guinea Pig Lung Membranes (RBL). The following applies: 0.2 nM ^3 H-LTD4, 60 min, 25° C.; read-out: Concentration (M) for 50.0 % Inhibition, IC (RBL). The gist of the method: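 Crude lung membranes from 300 g male guinea pigs (20 mg tissue/ml) were incubated in triplicate with 0.2 nM ³H-LTD4 in 50 mM Tris pH 7.7, 10 mM MgCl2, 1% DMSO for 60 min at 25 °C. Bound ligand was collected by GF/B filtration and scintillation counting; nonspecific binding defined with 100 nM LTC4.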

SMILES strings stand for the structures. Where “and” joins values, the source holds several entries; their conditions need not be identical. Equal entries are not always repeated.

`O=C(Nc1ccc(CCc2ccc(Cl)cc2)cc1)C1CS(=O)(=O)c2ccccc2C1=O` (centres unmarked) [Example 54, N-[4-[2-(4-Chlorophenyl)ethyl]phenyl]-3,4-dihydro-4-oxo-2H-1-benzothiopyran-3-carboxamide, 1,1-dioxide]: the IC50 turned out to be 1.09e-05 M. As for `O=C(Nc1ccccc1CCc1ccc(Cl)c(Cl)c1)C1=C(O)c2ccccc2S(=O)(=O)C1` [Example 8, N-[2-[2-(3,4-Dichlorophenyl)ethyl]phenyl]-4-hydroxy-2H-1-benzothiopyran-3-carboxamide, 1,1-dioxide], the IC50 came to 4.21e-06 M. Under `COc1ccc(CCc2ccc(NC(=O)c3sc4ccccc4c3O)cc2)cc1OC` [Example 143, Benzo[b]thiophene-2-carboxamide, N-[4-[2-(3,4-dimethoxphenyl)ethyl]phenyl]-3-hydroxy] stands 1.21e-05 M. In the case of `O=C(Nc1ccccc1Cc1ccc(Cl)c(Cl)c1)C1=C(O)c2ccccc2S(=O)(=O)C1` [Example 81, 2H-1-Benzothiopyran-3-carboxamide, N-[2-[(3,4-dichlorophenyl)methyl]phenyl]-4-hydroxy, 1,1-dioxide], the IC50 was 1.01e-05 M. In the case of `COc1ccc(CCc2ccc(NC(=O)C3CS(=O)(=O)c4ccccc4C3=O)cc2)cc1` (centres unmarked) [Example 41], the IC50 came to 1.26e-05 M.

As to `O=C(Nc1ccc(C=Cc2ccc(Cl)c(Cl)c2)cc1)C1=C(O)c2ccccc2S(=O)(=O)C1` [Example 74, 2H-1-Benzothiopyran-3-carboxamide, N-[4-[2-(3,4-dichlorophenyl)ethenyl]phenyl]-4-hydroxy-, 1,1-dioxide], the IC50 turned out to be 5.27e-06 M.

Consider `O=C(Nc1ccc(CCc2ccc(-c3ccccc3)cc2)cc1)C1CS(=O)(=O)c2ccccc2C1=O` (centres unmarked) [Example 46, N-[4-[2-([1,1'-biphenyl]-4-yl)ethyl]phenyl]-3,4-dihydro-4-oxo-2H-1-benzothiopyran-3-carboxamide, 1,1-dioxide], for which the IC50 was 2.15e-05 M and 1.87e-05 M. As to `COc1ccc(CCc2ccc(NC(=O)C3CS(=O)(=O)c4ccccc4C3=O)cc2)cc1O` (centres unmarked) [Example 27, 3,4-Dihydro-N-[4-[2-(3-hydroxy-4-methoxyphenyl)ethyl]phenyl]-4-oxo-2H-1-benzothiopyran-3-carboxamide, 1,1-dioxide], the IC50 is 0.000106 M and 0.00012 M. As for `O=C(Nc1ccc(Cc2ccc(Cl)c(Cl)c2)cc1)C1=C(O)c2ccccc2S(=O)(=O)C1` [Example 78, 2H-1-Benzothiopyran-3-carboxamide, N-[4-[(3,4-dichlorophenyl)methyl]phenyl]-4-hydroxy-, 1,1-dioxide], the IC50 amounted to 4.82e-06 M.

Turning to `O=C(Nc1ccc(CCc2c(F)c(F)c(F)c(F)c2F)cc1)C1=C(O)c2ccccc2S(=O)(=O)C1` [Example 64, N-[4-[2-(2,3,4,5,6-Pentafluorophenyl)ethyl]phenyl]-4-hydroxy-2H-1-benzothiopyran-3-carboxamide, 1,1-dioxide], the IC50 is 6.11e-06 M and 9.49e-06 M and 2.82e-06 M. Turning to `O=C(Nc1cccc(CCc2ccc(Cl)c(Cl)c2)c1)c1sc2ccccc2c1O` [Example 146, Benzo[b]thiophene-2-carboxamide, N-[3-[2-(3,4-dichlorophenyl)ethyl]phenyl]-3-hydroxy], the IC50 is 1.02e-06 M.

Take `O=C(Nc1cccc(CCc2ccc(Cl)c(Cl)c2)c1)C1=C(O)c2ccccc2S(=O)(=O)C1` [Example 76, 2H-1-Benzothiopyran-3-carboxamide, N-[3-[2-(3,4-dichlorophenyl)ethyl]phenyl]-4-hydroxy-, 1,1-dioxide]: the IC50 worked out at 3e-06 M. For the compound `CCCCCCCCCCc1ccc(NC(=O)C2CS(=O)(=O)c3ccccc3C2=O)cc1` (centres unmarked) [Example 60, N-(4-Decylphenyl)-3,4-dihydro-4-oxo-2H-1-benzoothiopyran-3-carboxamide, 1,1-dioxide], the IC50 came to 1.21e-05 M.

With `O=C(Nc1ccc(CCCc2ccc(Cl)c(Cl)c2)cc1)C1=C(O)c2ccccc2S(=O)(=O)C1` [Example 79, 2H-1-Benzothiopyran-3-carboxamide, N-[4-[3-(3,4-dichlorphenyl)propyl]phenyl]-4-hydroxy-, 1,1-dioxide], the IC50 was 4.13e-07 M and 5.3e-07 M. With `O=C(Nc1ccc(C=Cc2ccc([N+](=O)[O-])cc2)cc1)C1CS(=O)(=O)c2ccccc2C1=O` (centres unmarked) [Example 67, 2H-1-Benzothiopyran-3-carboxamide, 3,4-dihydro-N-[4-[2-(4-nitrophenyl)ethenyl]phenyl]-4-oxo-, 1,1-dixide], the IC50 is 6.56e-06 M and 1.04e-05 M. Take `Cc1ccc(CCc2ccc(NC(=O)C3CS(=O)(=O)c4ccccc4C3=O)cc2)cc1C` (centres unmarked) [Example 53, N-[4-[2-(3,4-Dimethylphenyl)ethyl]phenyl]-3,4-dihydro-4-oxo-2H-1-benzothiopyran-3-carboxamide, 1,1-dioxide]: the IC50 was found to be 3.54e-06 M.

Regarding `O=C(Nc1ccc(CCc2cccc3ccccc23)cc1)C1=C(O)c2ccccc2S(=O)(=O)C1` [Example 73, 2H-1-Benzothiopyran-3-carboxamide, 4-hydroxy-N-[4-[2-(1-naphthalenyl)ethyl]phenyl], 1,1-dioxide], the IC50 amounted to 3.84e-06 M. As for `CCCCOc1ccc(CCc2ccc(NC(=O)C3CS(=O)(=O)c4ccccc4C3=O)cc2)cc1` (centres unmarked) [Example 48], the IC50 is 6.48e-06 M and 1.19e-05 M and 2e-05 M and 1.29e-05 M. For the compound `O=C(Nc1ccc(CCc2ccc3ccccc3c2)cc1)C1=C(O)c2ccccc2S(=O)(=O)C1` [Example 51, 4-Hydroxy-N-[4-[2-(2-naphthalenyl)ethyl]phenyl]-2H-1-benzothiopyran-3-carboxamide, 1,1-dioxide], the IC50 is 3.84e-06 M.

Consider `O=C(Nc1ccccc1CCCc1ccc(Cl)c(Cl)c1)C1=C(O)c2ccccc2S(=O)(=O)C1` [Example 80, 2H-1-Benzothiopyran-3-carboxamide, N-[2-[3-(3,4-dichlorophenyl)propyl]phenyl]-4-hydroxy-, 1,1-dioxide], for which the IC50 came to 1.27e-05 M. In the case of `COc1ccc(CCc2ccc(NC(=O)C3=C(O)c4ccccc4S(=O)(=O)C3)cc2)cc1OC` [Example 18, N-[4-[2-(3,4-Dimethoxyphenyl)ethyl]phenyl]-4-hydroxy-2H-1-benzothiopyran-3-carboxamide, 1,1-dioxide], the IC50 turned out to be 7.19e-05 M. `O=C(Nc1ccc(CCc2ccccc2)cc1)C1CS(=O)(=O)c2ccccc2C1=O` (centres unmarked) [Example 16, 3,4-Dihydro-4-oxo-N-[(4-(2-phenyl)ethyl]-phenyl]-2H-1-benzothiopyran-3-carboxamide, 1,1-dioxide]: the IC50 stood at 1.28e-05 M. As to `COc1cc(CCc2ccc(NC(=O)C(=O)c3sc4ccccc4c3O)cc2)ccc1O` [Example 142, Benzo[b]thiophene-2-acetamide, 3-hydroxy-N-[4-[2-(4-hydroxy-3-methoxyphenyl)ethyl]phenyl]-α-oxo-], the IC50 stood at 6.1e-05 M.
